According to patent publication US5215916A, “Super glucocorticoid receptors: receptors with increased affinity and specificity for glucocorticoid steriods” (priority 1991, dated 1993):
Substitutions are numbered along the chain they refer to.

Assays:
[1] = molecular target: T1, C656S mutant glucocorticoid receptor (Rattus norvegicus, UniProt P06536, C656S/D98G); assay: Competition binding assay with [3H]Dex, COS-7 cytosol, C656S receptor; conditions: for reduction in relative affinity on replacement of Cys-656 with serine: C656S vs wild type, 2.5 hr incubation
T1 construct: Thus the full length receptor was removed from the VARO vector with BamHI and inserted into the SVL vector; expressed in transfected cells; host or cells: COS-7 (cytosol)
T1 sequence (P06536 1-795 D98G/C656S): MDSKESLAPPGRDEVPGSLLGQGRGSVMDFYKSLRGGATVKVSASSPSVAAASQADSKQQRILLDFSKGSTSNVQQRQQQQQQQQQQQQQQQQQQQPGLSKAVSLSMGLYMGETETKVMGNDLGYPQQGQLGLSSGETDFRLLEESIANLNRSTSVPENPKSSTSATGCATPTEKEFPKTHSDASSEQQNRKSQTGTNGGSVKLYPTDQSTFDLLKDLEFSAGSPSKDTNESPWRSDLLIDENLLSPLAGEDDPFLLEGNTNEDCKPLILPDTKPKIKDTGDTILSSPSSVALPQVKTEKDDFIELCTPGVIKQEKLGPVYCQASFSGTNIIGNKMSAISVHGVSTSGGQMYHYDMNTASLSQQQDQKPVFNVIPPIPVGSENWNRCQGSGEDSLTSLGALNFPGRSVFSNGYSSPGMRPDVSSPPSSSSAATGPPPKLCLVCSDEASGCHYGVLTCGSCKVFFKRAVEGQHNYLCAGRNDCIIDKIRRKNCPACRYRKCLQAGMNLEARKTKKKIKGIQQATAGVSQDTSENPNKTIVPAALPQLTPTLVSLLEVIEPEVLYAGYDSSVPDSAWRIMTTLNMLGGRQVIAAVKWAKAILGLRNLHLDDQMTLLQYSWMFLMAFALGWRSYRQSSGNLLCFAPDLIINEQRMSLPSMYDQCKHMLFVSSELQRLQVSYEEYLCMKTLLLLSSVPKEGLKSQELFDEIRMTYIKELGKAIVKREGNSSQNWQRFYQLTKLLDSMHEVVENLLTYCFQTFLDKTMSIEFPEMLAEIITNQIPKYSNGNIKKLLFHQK
Procedure: (§1) Monolayer cultures of COS-7 cells were grown in DMEM (Gibco) supplemented with 5% fetal bovine serum (FBS) (Biofluids) at 37° C. in a 5% CO2 incubator. Standard calcium phosphate transfection methods were used to introduce the wild type and mutant receptor expression vectors (pSVL) into COS-7 cells (100 mm plates [Costar] at a cell density of about 10^6 /plate were each treated with 10 μg of plasmid DNA). After ~16 hrs of incubation at 37° C. in a 5% CO2 incubator, the excess calcium phosphate and precipitate were removed by washing with phosphate buffered saline (PBS). The cells were incubated at 37° C. for another ~48 hr in DMEM/ 5% FBS and harvested by trypsinization followed by centrifugation (for 10 min at 1570 ×g) and washing 3 times with PBS. The washed cells were stored at -80° C. until used.
(§2) Briefly, 30% cytosol solutions containing ~21 mM Na2 MoO4 were prepared with three parts COS-7 cell cytosol, 2 parts pH 9.5 TAPS buffer, and 5 parts pH 8.8 TAPS buffer. The total EtOH in each experiment was kept constant and at a level of ≤1%. […] After incubation for 2.5 hr, the [^3 H]Dex-Mes-labeled solutions were quick-frozen at -78° C. for subsequent SDS-polyacrylamide gel electrophoresis analysis. The specifically bound [^3 H]Dex was determined by first adding a 10% dextran-coated charcoal solution (added volume =20% of reaction solution volume) to remove free steroid and then subtracting the nonspecific binding seen in the presence of excess nonradioactive Dex.
(§3) The average specific binding was determined after 2.5 or 24 hr of incubation as described above, expressed as percentage of the non-competed control and plotted versus the log10 of the concentration of the competing steroid.
(§4) The initial data were collected from 2.5 hr binding assays because of concerns about the stability of the receptors over longer times.

[2] = molecular target: T2, C661S mutant glucocorticoid receptor (Rattus norvegicus, UniProt P06536, C661S/D98G); assay: Competition binding assay with [3H]Dex, COS-7 cytosol, C661S receptor; conditions: for decrease in relative affinity on mutation of Cys-661: C661S vs wild type, 2.5 hr incubation
T2 construct: Thus the full length receptor was removed from the VARO vector with BamHI and inserted into the SVL vector; expressed in transfected cells; host or cells: COS-7 (cytosol)
T2 sequence (P06536 1-795 D98G/C661S): T1 sequence (P06536 1-795 D98G/C656S) with S656C, C661S
Procedure: as §1, §2, §3, §4

## C[C@]12CC[C@@H]3c4ccc(O)cc4CC[C@H]3[C@@H]1CC[C@@H]2O [17β-Estradiol, 17β-estradiol]
[1]
  Relative Ka of Steroid Binding to Receptor: 0.0015
  reduction in relative affinity on replacement of Cys-656 with serine: ≥ 10 fold
[2]
  Relative Ka of Steroid Binding to Receptor: 0.0017 ± 0.0006
  decrease in relative affinity on mutation of Cys-661: approximately 10 fold

## C[C@]12CCC(=O)C=C1CC[C@@H]1[C@@H]2[C@@H](O)C[C@]2(C=O)[C@@H](C(=O)CO)CC[C@@H]12 [Aldosterone, aldosterone]
[1]
  Relative Ka of Steroid Binding to Receptor: 0.068
  reduction in relative affinity on replacement of Cys-656 with serine: ≤ 3 fold
[2]
  Relative Ka of Steroid Binding to Receptor: 0.016 ± 0.007
  decrease in relative affinity on mutation of Cys-661: approximately 10 fold

## CC#C[C@]1(O)CC[C@H]2[C@@H]3CCC4=CC(=O)CCC4=C3[C@@H](c3ccc(N(C)C)cc3)C[C@@]21C [RU486]
[1]
  Relative Ka of Steroid Binding to Receptor: 3.4
[2]
  Relative Ka of Steroid Binding to Receptor: 3.84 ± 1.36
  effect of mutation of Cys-661 on binding: little effect
